Results taken from US20100273189A1, “NON SEPARATION ASSAYS WITH SELECTIVE SIGNAL INHIBITORS” (BECKMAN COULTER, INC., priority 2009, published 2010).

Target: T1, biotinylated HRP (Armoracia rusticana, UniProt P00433)
T1 construct: purchased Roche Diagnostics, Indianapolis, Ind., USA
T1 sequence (P00433 31-338 limits assumed): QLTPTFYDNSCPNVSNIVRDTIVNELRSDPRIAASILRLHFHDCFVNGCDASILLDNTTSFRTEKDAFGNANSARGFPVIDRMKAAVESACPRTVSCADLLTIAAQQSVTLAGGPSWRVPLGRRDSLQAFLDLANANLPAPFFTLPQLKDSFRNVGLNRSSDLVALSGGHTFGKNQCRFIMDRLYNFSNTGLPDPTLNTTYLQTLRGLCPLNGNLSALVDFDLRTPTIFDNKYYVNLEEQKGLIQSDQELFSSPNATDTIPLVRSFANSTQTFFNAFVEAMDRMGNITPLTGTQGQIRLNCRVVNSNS
Assay: Model system for selection of SSIA (M280 btn-BSA-AK1-streptavidin particles + Btn-HRP:HRP)
Assay type: biochemical
Conditions: for S/S0: Btn-HRP 0 ng/mL vs 0; for S/S0 / S1/S0 / S2/S0 / S3/S0 / S4/S0 / effect in the model system / utility as SSIA: SSIA 100 μM; for B-HRP0 light intensity: Btn-HRP 0 ng/mL; for B-HRP0 light intensity / B-HRP1 light intensity / B-HRP10 light intensity / B-HRP100 light intensity / B-HRP250 light intensity: total HRP 500 ng/mL, SSIA final 100 μM; for S1/S0: Btn-HRP 1 ng/mL vs 0; for B-HRP1 light intensity: Btn-HRP 1 ng/mL; for S2/S0: Btn-HRP 10 ng/mL vs 0; for B-HRP10 light intensity: Btn-HRP 10 ng/mL; for S3/S0: Btn-HRP 100 ng/mL vs 0; for B-HRP100 light intensity: Btn-HRP 100 ng/mL; for S4/S0: Btn-HRP 250 ng/mL vs 0; for B-HRP250 light intensity: Btn-HRP 250 ng/mL; for effect in the model system / utility as SSIA: conclusion in words
Method: The model system uses a microparticle conjugated to BSA (bovine serum albumin) labeled with a […] and acridan ketenedithioacetal chemiluminescent label (AK1) as the chemiluminescent-labeled sbp, and biotinylated HRP as the activator-labeled specific binding pair. In the model system, varying amounts of Btn-HRP is added to the chemiluminescent-labeled specific binding pair at 0, 1, 10, 100 and 250 ng/mL. Additional unlabeled HRP is added to reach a total HRP of concentration of 500 ng/mL in each reaction mixture. The unlabeled HRP in combination with the activator-labeled sbp was provided to the chemiluminescent-labeled sbp microparticles to emulate sample. A compound for assessment as an SSIA was also added. This reaction mixture of the model system is then triggered by addition of trigger solution in a manner of assays of the present disclosure.
To prepare the chemiluminescent-labeled sbp on microparticles, Bovine Serum Albumin (BSA) was biotinylated with 4× molar excess of biotin-LC-sulfoNHS (Pierce Biotechnology Inc., Rockford, Ill., USA). Unbound reactants were removed via desalting or dialysis. The biotin-BSA was then reacted with a 5× molar excess of acridan ketenedithioacetal AK1 in 20 mM sodium phosphate pH 7.2: DMSO 75:25, v/v) followed by desalting in the same buffer. The dual labeled (biotin and AK1) BSA was then coupled with tosyl activated M-280 microparticles (Invitrogen Corporation, Carlsbad, Calif., USA) in a 0.1 M borate buffer pH 9.5 at a concentration of ca. 20 μg labeled BSA per mg of microparticles for 16-24 h at 40° C. After coupling the microparticles were stripped for 1 h at 40° C. with 0.2 M TRIS base, 2% SDS, pH ˜11. The stripping process was repeated one additional time. Microparticles were then suspended in a 0.1% BSA/TRIS buffered saline (BSA/TBS) buffer and streptavidin (SA) was added at approximately 15 μg SA per mg microparticles. Streptavidin was mixed with the microparticles for 45-50 min at room temperature. The microparticles were then washed three times and suspended in the same BSA/TBS.
HRP, (Roche Diagnostics, Indianapolis, Ind., USA) was biotinylated with 4× molar excess of biotin-LC-sulfoNHS (Pierce Biotechnology Inc., Rockford, Ill., USA). Unbound reactants were removed via desalting or dialysis.
Each SSIA compound for assessment was dissolved in Buffer II at a concentration at least 10× of final concentration of the reaction mixture (after the addition of the trigger solution)
Paramagnetic particles (PMP): (M280)-(btn-BSA-AK)-(Streptavidin);
Sample Emulator: B-HRP:HRP; 500 ng/mL total with titration of B-HRP:HRP at Total HRP concentration of 500 ng/mL, with Btn-HRP variations: 0, 1, 10, 100 and 250 ng/mL.
SSIA: According to tables below in BUFFER II targeted to give a final concentration of 100 μM.
Trigger solution A is defined above.
5 μl of 1 mg/ml of dual-labeled (biotin and AK1) BSA M280 particles were mixed with 45 μl of working concentration SSIA in Buffer II. The assay volume brought to […] by adding 15 μl of Buffer II. 15 μl of sample containing Btn-HRP:HRP at different ratios (The amount of biotinylated-HRP varied from 0, 1, 10, 100 and 250 ng/mL) was added. The reaction mixture was incubated for 30 min at 37° C., then 100 μL of trigger solution was added and the light intensity recorded. Total volume of reaction mixture, including trigger solution was […] with a final concentration of 100 μM of SSIA.

S/S0 | B-HRP0 light intensity | S1/S0 | B-HRP1 light intensity | S2/S0 | B-HRP10 light intensity | S3/S0 | B-HRP100 light intensity | S4/S0 | B-HRP250 light intensity | SMILES | effect in the model system / utility as SSIA
1 | 2,772 | 2.3 | 6,468 | 452.1 | 1,253,187 | 3088.2 | 8,560,469 | 3473.4 | 9,628,184 | Cc1c(C)c2c(c(C)c1O)CC[C@@](C)(CCC[C@H](C)CCC[C@H](C)CCCC(C)C)O2 (racemic) [(+/−)-alpha-Tocopherol, (±)-a-Tocopherol] | –
1 | 675 | 1.7 | 1,163 | 110.8 | 74,764 | 489 | 330,056 | 384.5 | 259,541 | Cl.Nc1ccc(O)cc1O [4-aminoresorcinol HCl, 4-aminoresorcinol hydrochloride] | demonstrating utility as SSIA
1 | 14,485 | 1.6 | 23,707 | 64.8 | 939,372 | 547.2 | 7,927,096 | 658 | 9,530,979 | COc1cc(C(=O)O)cc(OC)c1O [Syringic Acid] | –
1 | 81 | 4 | 327 | 502.4 | 40,863 | 100662.3 | 8,187,204 | 125193.6 | 10,182,411 | CCCCCCCCCCCCCCCC(=O)OC[C@H](O)[C@H]1OC(=O)C(O)=C1O [Ascorbic Acid 6-palmitate, L-Ascorbic acid 6-Palmitate] | demonstrating utility as SSIA
1 | 173 | 8.4 | 1,460 | 215.1 | 37,291 | 41832.7 | 7,251,008 | 62274.5 | 10,794,247 | Cc1c(C)c2c(c(C)c1O)CCC(C)(C(=O)O)O2 (stereo not drawn) [Trolox ®, Trolox] | demonstrating utility as SSIA
1 | 54,528 | 1.3 | 70,741 | 43.7 | 2,381,361 | 173.7 | 9,471,431 | 190.2 | 10,370,061 | COc1ccc2[nH]cc(CCNC(C)=O)c2c1 [Melatonin] | no effect
1 | 5,532 | 1.8 | 9,760 | 185.3 | 1,025,209 | 1574.9 | 8,712,328 | 1935.8 | 10,708,733 | O=c1[nH]c(=O)c2[nH]c(=O)[nH]c2[nH]1 [Uric Acid] | –
1 | 43,647 | 1.1 | 47,636 | 40.3 | 1,757,607 | 199 | 8,685,795 | 234.2 | 10,219,869 | CC(=O)N[C@@H](CS)C(=O)O [N-Ac-Cysteine, N-acetyl cysteine] | no effect

SMILES | S/S0 | B-HRP0 light intensity | S1/S0 | B-HRP1 light intensity | S2/S0 | B-HRP10 light intensity | S3/S0 | B-HRP100 light intensity | S4/S0 | B-HRP250 light intensity | effect in the model system / utility as SSIA
CC1(C)CC(O)CC(C)(C)N1[O] [TEMPOL] | 1 | 22,621 | 1.5 | 33,873 | 86.8 | 1,963,369 | 407.6 | 9,220,799 | 467.6 | 10,578,104 | no effect
COc1cc(/C=C/C(=O)O)ccc1O [Ferulic acid] | 1 | 5,252 | 2.3 | 12,079 | 136.2 | 715,313 | 1672.9 | 8,785,865 | 1950.5 | 10,244,269 | –
N[C@@H](CS)C(=O)O [Cysteine] | 1 | 35,695 | 1.6 | 58,203 | 69.6 | 2,483,411 | 256.3 | 9,147,371 | 285.5 | 10,190,505 | no effect
Oc1ccc(Cl)cc1O [4-chlorocatechol] | 1 | 93 | 2.2 | 205 | 14.8 | 1,373 | 4910.8 | 456,707 | 13558.5 | 1,260,937 | demonstrating utility as SSIA
NNC(=O)c1cccnc1 [Nicotinic Hydrazide] | 1 | 42,260 | 1.4 | 58,356 | 49.8 | 2,106,471 | 194.2 | 8,205,320 | 187.5 | 7,923,092 | no effect
Oc1ccc(O)c(Cl)c1 [2-chloro-1,4-dihydroxybenzene] | 1 | 3,571 | 1.1 | 4,007 | 52.9 | 188,920 | 170.8 | 610,053 | 245.3 | 875,831 | demonstrating utility as SSIA
